Assay results from ChEMBL document CHEMBL4007471, “Assessment of new triplet forming artificial nucleobases as RNA ligands directed towards HCV IRES IIId loop” (Bioorg Med Chem Lett, 2017).

Assays:
[1] = molecular target: Internal ribosome entry site (IRES); test: Binding affinity to HCV 5'-Alexa488-labeled IRES domain 3 loop RNA at 15 degC after overnight incubation by fluorescence assay; design: species or system Hepacivirus hominis
[2] = molecular target: Internal ribosome entry site (IRES); test: Binding affinity to HCV 5'-Alexa488-labeled IRES domain 3 loop RNA at 10 degC after overnight incubation by fluorescence assay; design: species or system Hepacivirus hominis
[3] = molecular target: Internal ribosome entry site (IRES); test: Binding affinity to HCV 5'-Alexa488-labeled IRES domain 3 loop RNA at 20 degC after overnight incubation by fluorescence assay; design: species or system Hepacivirus hominis
[4] = molecular target: Internal ribosome entry site (IRES); test: Binding affinity to HCV 5'-Alexa488-labeled IRES domain 3 loop RNA at 5 degC after overnight incubation by fluorescence assay; design: species or system Hepacivirus hominis
[5] = test system: Internal ribosome entry site (IRES); test: Binding affinity to HCV 5'-Alexa488-labeled IRES domain 3 loop RNA at 30 degC after overnight incubation by fluorescence assay; design: species or system Hepacivirus hominis
[6] = test system: Internal ribosome entry site (IRES); test: Binding affinity to HCV 5'-Alexa488-labeled IRES domain 3 loop RNA at 36 degC after overnight incubation by fluorescence assay; design: species or system Hepacivirus hominis
[7] = molecular target: Internal ribosome entry site (IRES); test: Binding affinity to HCV IRES 5'Alexa488-GCCGAGGAGUGUUGGGUCGCGCAAGGC-3' RNA at 20 degC after overnight incubation by fluorescence assay; design: species or system Hepacivirus hominis
[8] = test system: Internal ribosome entry site (IRES); test: Binding affinity to HCV 5'-Alexa488-labeled IRES domain 3 loop RNA assessed as gibbs free energy change after overnight incubation by fluorescence assay; conditions: Hepacivirus hominis
[9] = test system: Internal ribosome entry site (IRES); test: Binding affinity to HCV 5'-Alexa488-labeled IRES domain 3 loop RNA assessed as change in enthalpy after overnight incubation by fluorescence assay; conditions: Hepacivirus hominis
[10] = molecular target: Internal ribosome entry site (IRES); test: Binding affinity to HCV 5'-Alexa488-labeled IRES domain 3 loop RNA at 20 degC after overnight incubation in presence of 50-fold excess of tRNA by fluorescence assay; design: species or system Hepacivirus hominis
[11] = test system: Internal ribosome entry site (IRES); test: Selectivity ratio of Kd for 5'-Alexa488-labeled IRES domain 3 loop RNA in presence of 50-fold excess of tRNA at 20 degC to Kd for HCV 5'-Alexa488-labeled IRES domain 3 loop RNA at 20 degC; conditions: Hepacivirus hominis
[12] = test system: Internal ribosome entry site (IRES); test: Binding affinity to HCV 5'-Alexa488-labeled IRES domain 3 loop RNA assessed as change in entropy after overnight incubation by fluorescence assay; conditions: Hepacivirus hominis
[13] = test system: Internal ribosome entry site (IRES); test: Potency index, ratio of neomycin Kd to compound Kd for HCV 5'-Alexa488-labeled IRES domain 3 loop RNA at 20 degC; conditions: Hepacivirus hominis
[14] = test system: Internal ribosome entry site (IRES); test: Selectivity ratio of Kd for HCV IRES 5'Alexa488-GCCGAGGAGUGUUGGGUCGCGCAAGGC-3' RNA at 20 degC to Kd for HCV 5'-Alexa488-labeled IRES domain 3 loop RNA at 20 degC; conditions: Hepacivirus hominis

Compound	Kd ([1]; read-out: Kd) [µM]	Kd ([2]; read-out: Kd) [µM]	Kd ([3]; read-out: Kd) [µM]	Kd ([4]; read-out: Kd) [µM]	Kd [5]	Kd [6]	Kd [3]	deltaG [8] [kcal/mol]	deltaH [9] [kcal/mol]	TdeltaS [12] [kcal/mol]	Kd ([5]; read-out: Kd) [µM]	Kd ([6]; read-out: Kd) [µM]	also measured
CC(=O)Nc1nccc(-c2cccc(NC(=O)CN)c2)n1	438	284	863	177	Not Active	Not Active							
NCCCCCC(=O)NCC(=O)Nc1nc2ccccc2[nH]1					Not Active	Not Active	Not Active						Kd [1]: Not Active; Kd [2]: Not Active; Kd ([7]; read-out: Kd): 41.4 µM; Kd [4]: Not Active
NCC(=O)NCC(=O)Nc1nc2ccccc2[nH]1					Not Active	Not Active	Not Active						Kd [1]: Not Active; Kd [2]: Not Active; Kd [4]: Not Active
CC(=O)Nc1nccc(-c2cccc(NC(=O)c3cccnc3)c2)n1	360	290	659	137	Not Active	Not Active							
CC(=O)Nc1nccc(-c2cccc(NC(=O)CCCCCN)c2)n1	11.4	11.1	11.8	10.8				-6.62	-0.741	5.88	12	11.4	Kd [10]: 17.1 µM; Selectivity ratio [11]: 1.4; Kd [7]: Not Active
NCCCC[C@H](N)C(=O)O [LYSINE]							Not Active						
NCCCC(=O)NCC(=O)Nc1nc2ccccc2[nH]1					Not Active	Not Active	Not Active						Kd [1]: Not Active; Kd [2]: Not Active; Kd [4]: Not Active
CC(=O)Nc1nccc(-c2cccc(NC(=O)[C@@H](N)CCCCN)c2)n1	3.8	3.4	4.3	3.2				-7.17	-6.14	1.03	6.2	8.6	Kd [10]: 10.5 µM; Selectivity ratio [11]: 2.4; Kd ([7]; read-out: Kd): 554 µM; Ratio [13]: 2; Selectivity ratio [14]: > 100
CC(=O)Nc1nccc(-c2cccc(NC(=O)[C@@H](N)Cc3c[nH]cn3)c2)n1	15	11.8	19.7	8.6				-6.19	-11.6	-5.4	50.8	262	
CC(=O)Nc1nccc(-c2cccc(NC(=O)CCCN)c2)n1	159	122	220	102	Not Active	Not Active							
CC(=O)Nc1nccc(-c2cccc(NC(=O)CCCCCNC(=O)[C@@H](N)CN)c2)n1	14.2	11.6	16.8	9.4				-6.33	-8.08	-1.74	27.7	42.6	
NCC1O[C@H](O[C@H]2[C@@H](O)[C@H](O[C@H]3[C@H](O)[C@@H](N)C[C@@H](N)[C@@H]3O[C@H]3O[C@H](CN)[C@@H](O)[C@H](O)[C@H]3N)O[C@@H]2CO)[C@H](N)[C@@H](O)[C@@H]1O (stereo partly specified)	6.5	6.1	8.5	5.7				-6.72	-9.51	-2.8	15.6	24.1	
CC(=O)Nc1nccc(-c2cccc(NC(=O)CCCN(C)C)c2)n1	34.8	31.5	36.9	29.5				-6.02	-1.91	4.11	38.4	32.5	
CC(=O)Nc1nccc(-c2cccc(N)c2)n1							Not Active						
CC(=O)Nc1nccc(-c2cccc(NC(=O)c3nccnc3N)c2)n1	158	138	232	81.5	Not Active	Not Active							
CC(=O)Nc1nccc(-c2cccc(NC(=O)[C@@H](N)CN)c2)n1	7.6	6.5	10.1	5.1				-6.64	-9.63	-2.99	18.4	30.1	
